Laboratory results: EP4640674A1, “CRYSTAL FORMS OF ETHOXIMOD, PREPARATION METHOD THEREFOR AND USE THEREOF” (Jiankuan (Suzhou) Biotechnology Co., Ltd, priority 2022, dated 2024)
“And” between values parts separate entries of the source, which are not always exact repeats. Equal values may be shown once. “Also recorded” adds a separate entry of the source.

Experiments:
Format in all cases: physicochemical
[1] = Mechanical stability: grinding, XRPD before and after; details: ground with an agate mortar for 5 min; hydrochloride
Procedure: 50 mg crystal form A of ethoximod and 50 mg crystal form B of ethoximod were weighed and ground clockwise with an agate mortar for 5 min, and the samples before and after the grinding were subjected to an XRPD test.

[2] = Angle of repose test (flowability); details: hydrochloride; for Angle of Repose: single determination
Procedure: Powder properties of active pharmaceutical ingredients affect the flowability of the active pharmaceutical ingredients. The crystal form A and the crystal form B of ethoximod was subjected to angle of repose and Hausner ratio tests to compare the flowability of the crystal form A and the crystal form B of ethoximod. […] In this experiment, angles of repose of active pharmaceutical ingredients of the two crystal forms were measured through an injection method in combination with a residual cone method, and the flowability of the active pharmaceutical ingredients of the two crystal forms was analyzed. Specific operations are as follows: powders were injected into a center of a disc with a limited diameter, the injection was stopped until materials on an oblique side of a powder accumulation layer automatically flew out along an edge of the disc, a height (H) of a cone was measured, and the angle of repose was calculated according to the diameter (D = 2r) of the disc with tanQ = H/r.

[3] = Solid-state stability on storage (crystal form by XRPD, purity); details: for Crystal Form after storage / main purity after storage / maximum single impurity after storage: 30 days exposed; for main purity / maximum single impurity: before storage
Procedure: Samples were taken before and after storage, and crystal forms were measured through XRPD. […] Table 3 Comparison of solid-state stability of crystal form A and crystal form B

[4] = Compressibility: tableting evaluation; details: punch die with a diameter of 6 mm, hydrochloride; for Experimental Phenomenon: tableting
Procedure: The crystal form A and the crystal form B of ethoximod were taken for preparation tableting evaluation. In this experiment, samples were subjected to tableting under the same pressure by using a punch die with a diameter of 6 mm, radial crushing forces F, diameters D and thicknesses L of the tablets were measured after the elastic recovery of the tablets, and the tensile strength of the tablets was calculated according to the following formula: tensile strength Ts = 2F/ΠDL.

[5] = Microscopic morphology and particle size; details: optical microscope, 40× objective lens; hydrochloride
From the text: Samples of the crystal form A and the crystal form B of ethoximod were subjected to microscopic morphological researches. The morphology and particle sizes of the crystal form A and the crystal form B were observed under a 40× objective lens of an optical microscope. The crystal form A is irregular and plate-shaped with a raw material particle size of below 35 µm and a long/short diameter ratio of 1 to 2. The crystal form B aggregates and becomes spherical with a raw material particle size of below 20 µm.

[6] = Dynamic vapor sorption (hygroscopicity); details: for hygroscopic weight gain (vapor sorption): 25 °C/90% RH; for hygroscopic weight gain (vapor sorption) / hygroscopicity / crystal form after the dynamic vapor sorption test (XRPD): hydrochloride; for hygroscopicity: DVS, 90% RH; for crystal form after the dynamic vapor sorption test (XRPD): after DVS test
From the text: In the examples of the present application, the instrument used for the X-ray powder diffraction test is the D2 Phaser produced by Bruker. The instrument used for the differential scanning calorimetry test is the differential scanning calorimeter DSC 250 produced by TA Instruments. The instrument used for the thermogravimetric analysis is the thermogravimetric analyzer TGA 55 produced by TA Instruments. The instrument used for the FT-IR test is the Fourier infrared spectrometer ID1-summit produced by Thermo. The instrument used for the dynamic vapor sorption test is the DVS Intrinsic produced by Surface Measurement Systems (SMS). The instrument used for the microscopy is the microscope NJF-120A produced by Suzhou Nanguang Electronic Technology Co., Ltd.
Samples of the crystal form A and the crystal form B of ethoximod were taken for a dynamic vapor sorption test.

[7] = Adhesion test in ziplock bag; details: ziplock bag flipped at 5 rpm, 10 min in each direction; hydrochloride
Procedure: Each of the crystal form A and the crystal form B of ethoximod was taken and put into a ziplock bag with a fixed size. A seal was sealed, and the ziplock bag was flipped at a rotation speed of 5 rpm for 10 min. A direction was changed, and the ziplock bag continued to be flipped at a fixed rotation speed for 10 min. Raw materials were poured out from the bag, a mass of the remaining raw materials was weighed accurately, and an adhesion rate was calculated.

[8] = Bulk density and tap density test, Hausner ratio and compressibility; details: hydrochloride; for Compressibility: (tap density - bulk density)/tap density; for Hausner Ratio: tap density/bulk density
Procedure: In this experiment, the measurement was performed by using a tap instrument according to a fixed volume method. Specific operations are as follows: the weighed powders were loaded into a 50 mL graduated cylinder, and the graduated cylinder was fixed on a support; the tap instrument was set to vibrate 55±5 times per minute for 6-8 min; a change in a volume of the powders in the measuring cup was measured. A ratio of a mass of the powders to a volume (50 mL) of the materials before the tap is the bulk density of the powders, and a ratio of the mass of the powders to a volume of the materials after the tap is the tap density of the powders. Methods for converting Hausner ratio and compressibility are as follows, and the description of Hausner ratio and flowability is shown in Table 8: Table 6 Physical properties of crystal form A and crystal form B

[9] = 40 °C/75% RH, 60 °C and 92.5% RH for 30 days
[10] = light for 30 days, hydrochloride

Row | SMILES | crystal form after grinding (XRPD) [1] | Average of Angles of Repose [2] | Angle of Repose [2] | change in main purity [3, 9] | Crystal Form after storage ([3]; At 40 °C/75% RH, hydrochloride) | main purity after storage ([3]; At 40 °C/75% RH, hydrochloride) | maximum single impurity after storage ([3]; At 40 °C/75% RH, hydrochloride) | Crystal Form after storage ([3]; At 60 °C, hydrochloride) | main purity after storage ([3]; At 60 °C, hydrochloride) | maximum single impurity after storage ([3]; At 60 °C, hydrochloride) | Crystal Form after storage ([3]; At 92.5% RH, hydrochloride) | main purity after storage ([3]; At 92.5% RH, hydrochloride) | maximum single impurity after storage ([3]; At 92.5% RH, hydrochloride) | Crystal Form after storage ([3]; In light, hydrochloride) | main purity after storage ([3]; In light, hydrochloride) | maximum single impurity after storage ([3]; In light, hydrochloride) | main purity ([3]; hydrochloride) | maximum single impurity ([3]; hydrochloride) | change in main purity [3, 10] | Experimental Phenomenon [4] | also measured
1 | CCc1nc(-c2ccc(-c3ccc(CCC(N)(CO)CO)cc3)cc2)co1.Cl [crystal form A, 2-amino-2-{2-(4'-(2-ethyloxazol-4-yl)-[1,1'-biphenyl]-4-yl)ethyl}-1,3-propylene glycol hydrochloride] | remains unchanged | 57.2 ° | 56.3 ° and 58.0 ° | no significant change | crystal form A | 98.88 A% | 0.35 A% | crystal form A | 98.82 A% | maximum single impurity: 0.35 A% | crystal form A | 98.86 A% | maximum single impurity: 0.35 A% | crystal form A | 97.79 A% | maximum single impurity: 0.34 A% | 98.84 A% | 0.40 A% | slightly decreased | slight sticking | time the crystal form is stable (XRPD) ([3]; 60 °C, 92.5% RH, light and 45 °C/75% RH): at least 30 days; Radial Crushing Force F (Hardness/N) ([4]; tablet): 5 N and 3 N; raw material particle size [5]: below 35 µm; vapor sorption weight gain ([6]; 24.3 °C and 90% RH): 0.14%; hygroscopic weight gain (vapor sorption) [6]: 0.14%; hygroscopicity [6]: no or almost no hygroscopicity; crystal form after the dynamic vapor sorption test (XRPD) [6]: not subjected to crystal transformation; Adhesion Amount Per Unit Area [7]: 0.002 g/m^2; Weight of API Adsorbed in Bag [7]: 0.1053 g; Compressibility [8]: 54.0; Bulk Density [8]: 0.2578 g/mL; Tap Density [8]: 0.5604 g/mL; Hausner Ratio [8]: 2.2
2 | CCc1nc(-c2ccc(-c3ccc(CCC(N)(CO)CO)cc3)cc2)co1.Cl [crystal form B, 2-amino-2-{2-(4'-(2-ethyloxazol-4-yl)-[1,1'-biphenyl]-4-yl)ethyl}-1,3-propylene glycol hydrochloride] | partially crystal transformed into a crystal form C | 52.3 ° | 50.2 ° and 54.5 ° | no significant change | crystal form C | 98.82 A% | maximum single impurity: 0.34 A% | crystal form B | 98.61 A% | maximum single impurity: 0.36 A% | crystal transformed into the crystal form C | 98.83 A% | maximum single impurity: 0.36 A% | crystal form B | 91.81 A% | maximum single impurity: 1.57 A% | crystal form B main purity: 98.85 A% | maximum single impurity: 0.33 A% | decreased to a certain extent | relatively severe sticking | time the crystal form is stable (XRPD) ([3]; 60 °C and light): at least 30 days; crystal form after storage (XRPD) ([3]; placed for 5 days under 92.5% RH and 45 °C/75% RH): crystal transformed into the crystal form C; raw material particle size [5]: below 20 µm; hygroscopic weight gain (vapor sorption) [6]: 4.6%; hygroscopicity [6]: with hygroscopicity; also recorded: has hygroscopicity; crystal form after the dynamic vapor sorption test (XRPD) [6]: crystal transformed into the crystal form C; also recorded: crystal transformed into a crystal form C; Adhesion Amount Per Unit Area [7]: 0.001 g/m^2; Weight of API Adsorbed in Bag [7]: 0.0735 g; Compressibility [8]: 62.0; Bulk Density [8]: 0.0742 g/mL; Tap Density [8]: 0.1953 g/mL; Hausner Ratio [8]: 2.6
